One experiment concerns AMPK phosphorylation. Briefly: Western blot of AMPK phosphorylation in mature 3T3-L1 adipocytes. The experiment is classed as cell-based, mouse. Particulars: 5 or 10 µM for 1 h. As for the experimental part:
To further elucidate the pathway involved in 1e-mediated glucose uptake promotion, AMPK and Akt phosphorylation in mature 3T3-L1 adipocytes was evaluated via Western blotting following treatment with 5 or 10 µM 1e for 1 h.
The expression levels of glucose uptake-related proteins were determined via Western blotting, as previously described. In brief, differentiated 3T3-L1 cells were plated in six-well plates at a 1.5 × 10^4 cells/well density in a final volume of 2 mL. Then, the cells were incubated in the presence of DMSO or different concentrations of the compounds and harvested using a RIPA buffer (Sigma-Aldrich, Saint Louis, MS, USA) and a protease inhibitor cocktail (Roche Korea, Seoul, Korea) after 1 h of incubation. Equivalent amounts of proteins (20 µg) from each lysate were separated by 10% SDS-PAGE and transferred onto PVDF membranes (Merk KgaA, Darmstadt, Germany), where they were maintained for 120 min at 200 mA. The membranes were blocked with 5% skim milk for 1 h at room temperature in 0.1% TBST and then probed with primary antibodies at different concentrations in 0.1% BSA overnight at 4 °C according to the manufacturer’s instructions. Secondary antibodies were added to the membranes at a concentration of 1:2000 for 1 h at room temperature, and immunoreactive bands were detected via ECL (GE Healthcare Korea Co., Ltd., Incheon, Korea). […]

The target in the next experiment is T1, PPARγ (Homo sapiens, UniProt P37231).
T1 construct: expressed in transfected cells; host or cells: CHO cells
T1 sequence (P37231 1-505): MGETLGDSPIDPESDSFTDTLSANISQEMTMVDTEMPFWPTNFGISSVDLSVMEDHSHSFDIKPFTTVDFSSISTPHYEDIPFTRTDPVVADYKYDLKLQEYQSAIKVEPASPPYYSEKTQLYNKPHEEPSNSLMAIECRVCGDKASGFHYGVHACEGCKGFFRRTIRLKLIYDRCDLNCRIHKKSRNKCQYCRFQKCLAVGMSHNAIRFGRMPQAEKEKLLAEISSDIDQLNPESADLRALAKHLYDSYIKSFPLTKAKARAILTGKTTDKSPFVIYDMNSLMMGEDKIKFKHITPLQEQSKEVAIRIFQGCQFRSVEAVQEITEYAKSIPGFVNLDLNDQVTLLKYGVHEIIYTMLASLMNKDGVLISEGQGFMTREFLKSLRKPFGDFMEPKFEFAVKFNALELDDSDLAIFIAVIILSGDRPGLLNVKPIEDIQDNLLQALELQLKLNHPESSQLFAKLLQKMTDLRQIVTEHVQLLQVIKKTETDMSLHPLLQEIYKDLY
Nature of the experiment: PPARγ PPRE-Luc reporter gene assay in CHO cells. The experiment is classed as cell-based. The note with it: 50 μM. The source says: Glucose uptake is regulated by three major mechanisms. First, through the activation of the Akt pathway, which promotes GLUT4 translocation via the activation of the signaling cascade involving the insulin receptor substrate (IRS) family and PI3 kinase through […] or G-protein-coupled receptors (GPCRs); second, through the upregulation of AMPK phosphorylation, which increases glucose uptake by inducing GLUT4 translocation to the plasma membrane; third, through the promotion of GLUT4 expression by PPARγ ligands. […] However, these compounds may induce GLUT4 expression and improve insulin sensitivity in the treated cells through their interactions with GPCR and/or PPARγ. Among GPCRs highly expressed in 3T3-L1 adipocytes and C2C12 muscle cells, GPR120 is the receptor that is most closely associated with glucose uptake. […] This was performed following a previously described method. In brief, CHO cells were plated to 96-well white plates (REF3610, Corning Life Sciences, NY, USA) in DMEM (HyClone^TM, Cytivalifescience, Seoul, Korea) supplemented with 10% FBS and 1% penicillin at a density of 1.5 × 10^4 cells/well. […] After incubation for another 24 h, luciferase activity was measured using the dual-luciferase assay system (Promega Korea, Seoul, Korea) according to the manufacturer’s instructions. […]

The source of these data is publication PMC8999917, “Structure–Activity Relationship of Synthetic Ginkgolic Acid Analogs for Treating Type 2 Diabetes by PTPN9 Inhibition” (International Journal of Molecular Sciences, 2022).

On to `CCCCCCCCCCCCCOc1cccc(O)c1C(=O)O` [Compound 1e], for which, in the experiment on AMPK phosphorylation, the AMPK phosphorylation entry was “significantly induced AMPK phosphorylation in a concentration-dependent manner”. Also, the “PPARγ transcriptional activity (PPRE-Luc)” value at PPARγ is reported as “No significant change”.
For `CCCCCCCCCCCCCCCOc1cccc(O)c1C(=O)O` [Compound 1f], at PPARγ, the “PPARγ transcriptional activity (PPRE-Luc)” value is listed as “No significant change”.
